How the values were obtained:
[1] = biological target: PDGFRα (Homo sapiens (Human), UniProt P16234); test: PDGFRα kinase enzyme assay (Promega PDGFRα Kinase Enzyme System, ADP-Glo); format: biochemical; settings: 11-point dose response, 10,000 nM to 0.169 nM; 150 uM ATP; BLQ = below limit of quantitation; read-out: IC50 Values on PDGFRα Kinase Inhibition, IC50
In short: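 Purified PDGFRα protein (20 ng) reacted with test compound per the Promega kinase system protocol. ADP formed was measured by ADP-Glo luminescence against a standard curve, giving IC50.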

[2] = test system: Oligodendrocyte progenitor cells (OPCs); test: In vitro OPC differentiation assay, GPR17 expression (immunocytochemistry); settings: 3 μM (10× concentration, final 0.3 μM); 72 hours; fold change over vehicle

PDGFRα, sequence (P16234 24-1089): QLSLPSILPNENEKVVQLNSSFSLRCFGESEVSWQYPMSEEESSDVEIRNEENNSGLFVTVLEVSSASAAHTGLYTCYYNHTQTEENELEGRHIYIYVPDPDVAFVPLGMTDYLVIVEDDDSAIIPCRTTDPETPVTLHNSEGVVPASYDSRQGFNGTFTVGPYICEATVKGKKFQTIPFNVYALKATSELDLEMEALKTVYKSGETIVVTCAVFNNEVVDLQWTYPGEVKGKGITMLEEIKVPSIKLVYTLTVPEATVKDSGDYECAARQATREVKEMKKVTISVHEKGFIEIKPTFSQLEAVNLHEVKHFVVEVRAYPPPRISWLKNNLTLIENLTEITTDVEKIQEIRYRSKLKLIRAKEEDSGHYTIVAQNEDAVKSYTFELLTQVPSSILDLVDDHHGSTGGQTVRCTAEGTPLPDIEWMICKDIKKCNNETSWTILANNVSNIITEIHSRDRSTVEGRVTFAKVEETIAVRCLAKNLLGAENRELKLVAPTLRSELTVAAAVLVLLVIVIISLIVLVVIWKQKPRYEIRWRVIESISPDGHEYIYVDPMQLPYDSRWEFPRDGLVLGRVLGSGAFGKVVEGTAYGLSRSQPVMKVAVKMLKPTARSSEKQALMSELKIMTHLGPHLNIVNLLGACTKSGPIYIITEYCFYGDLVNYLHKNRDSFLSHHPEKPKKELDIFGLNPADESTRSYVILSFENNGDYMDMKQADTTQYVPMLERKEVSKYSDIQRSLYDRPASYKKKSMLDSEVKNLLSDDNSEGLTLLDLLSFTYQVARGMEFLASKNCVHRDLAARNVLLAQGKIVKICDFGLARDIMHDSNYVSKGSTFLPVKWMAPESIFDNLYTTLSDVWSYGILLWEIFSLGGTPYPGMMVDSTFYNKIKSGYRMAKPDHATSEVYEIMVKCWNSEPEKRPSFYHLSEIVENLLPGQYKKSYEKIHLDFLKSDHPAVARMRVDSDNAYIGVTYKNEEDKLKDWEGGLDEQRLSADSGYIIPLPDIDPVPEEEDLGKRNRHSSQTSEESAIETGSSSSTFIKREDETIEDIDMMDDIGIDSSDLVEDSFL

Structure (SMILES) | IC50 [1] [µM] | GPR17 Fold Induction (Over Vehicle; 3 μM) [2]
COCCn1cc(-c2cc3ncc(N4CCN(C(=O)OC(C)(C)C)CC4)n3cn2)cn1 [Compound 88, tert-butyl 4-(7-(1-(2-methoxyethyl)-1H-pyrazol-4-yl)imidazo[1,2-c]pyrimidin-3-yl)piperazine-1-carboxylate] | 1.6 | 2.90
Cn1cc(-c2ccc3c(N4CCN(C(=O)OCc5ccc(Cl)s5)CC4)cnn3c2)cn1 [Compound 196, (5-chlorothiophen-2-yl)methyl 4-(6-(1-methyl-1H-pyrazol-4-yl)pyrazolo[1,5-a]pyridin-3-yl)piperazine-1-carboxylate] | 0.522 | 5.65
Cn1cc(-c2ccc3c(C(O)CCc4ncc(Cc5ccccc5)cn4)cnn3c2)cn1 (stereo not shown) [Compound 299, 3-(5-benzylpyrimidin-2-yl)-1-(6-(1-methyl-1H-pyrazol-4-yl)pyrazolo[1,5-a]pyridin-3-yl)propan-1-ol] | > 10 | 1.43
CCC(O)c1cnc(N2CCN(c3cnn4cc(-c5cnn(C)c5)ccc34)CC2)nc1 (stereo not shown) [Compound 287, 1-(2-{4-[6-(1-methyl-1H-pyrazol-4-yl)pyrazolo[1,5-a]pyridin-3-yl]piperazin-1-yl}pyrimidin-5-yl)propan-1-ol] | 2.47 | 6.48
Cn1cc(-c2ccc3c(N4CCN(c5nnc(Cc6ccccc6)s5)CC4)cnn3c2)cn1 [Compound 306, 2-benzyl-5-(4-(6-(1-methyl-1H-pyrazol-4-yl)pyrazolo[1,5-a]pyridin-3-yl)piperazin-1-yl)-1,3,4-thiadiazole] | 0.00231 | 4.37
Cn1cc(-c2ccc3c(N4CCN(C(=O)OC5CC(F)(F)C5)CC4)cnn3c2)cn1 [Compound 307, 3,3-difluorocyclobutyl 4-[6-(1-methyl-1H-pyrazol-4-yl)pyrazolo[1,5-a]pyridin-3-yl]piperazine-1-carboxylate] | 2.15 | 4.20
CC(C)(C)OC(=O)N1CCCN(c2cnc3nc(-c4cccnc4)ccn23)CC1 [Compound 106] | > 10 | 0.72
Cn1cc(-c2ccc3c(N4CCN(Cc5csc(Cl)c5)CC4)cnn3c2)cn1 [Compound 200, 3-(4-((5-chlorothiophen-3-yl)methyl)piperazin-1-yl)-6-(1-methyl-1H-pyrazol-4-yl)pyrazolo[1,5-a]pyridine] | 6.96 | 2.20
Cn1cc(-c2ccc3c(N4CCNCC4)cnn3c2)cn1 [Compound 12, 1-[6-(1-methylpyrazol-4-yl)pyrazolo[1,5-a]pyridin-3-yl]piperazine] | > 10 | 0.68
Cn1cc(-c2ccc3c(N4CCN(c5nc(Cc6ccccc6)ns5)CC4)cnn3c2)cn1 [Compound 245, 3-benzyl-5-(4-(6-(1-methyl-1H-pyrazol-4-yl)pyrazolo[1,5-a]pyridin-3-yl)piperazin-1-yl)-1,2,4-thiadiazole] | > 10 | 5.22
CC(C)(C)OC(=O)N1CCN(c2cnn3cc(-c4ccccc4F)ccc23)CC1 [Compound 209, tert-butyl-4-(6-(2-fluorophenyl)pyrazolo[1,5-a]pyridin-3-yl)piperazine-1-carboxylate] | > 10 | 2.02
Cn1cc(-c2ccc3c(N4CCN(c5cnc(Cc6ccccc6)nc5)CC4)cnn3c2)cn1 [Compound 70, 3-[4-(2-benzylpyrimidin-5-yl)piperazin-1-yl]-6-(1-methyl-1H-pyrazol-4-yl)pyrazolo[1,5-a]pyridine] | 6.7 | 3.72

The remaining lines, values ahead:

IC50 [1] [µM] | GPR17 Fold Induction (Over Vehicle; 3 μM) [2] | Structure (SMILES)
> 10 | 6.21 | Cn1cc(-c2ccc3c(N4CCN(c5ncc(C(=O)C(F)(F)F)cn5)CC4)cnn3c2)cn1 [Compound 284, 2,2,2-trifluoro-1-(2-(4-(6-(1-methyl-1H-pyrazol-4-yl)pyrazolo[1,5-a]pyridin-3-yl)piperazin-1-yl)pyrimidin-5-yl)ethan-1-one]
7.38 | 2.54 | COc1cccc(-c2ccc3c(N4CCN(C(=O)OC(C)(C)C)CC4)cnn3c2)c1 [Compound 211, tert-butyl 4-(6-(3-methoxyphenyl)pyrazolo[1,5-a]pyridin-3-yl)piperazine-1-carboxylate]
> 10 | 0.98 | CN(CCN(C)c1cnc2nc(C3CCOC3)ccn12)C(=O)OC(C)(C)C (stereo not shown) [Compound 98]
> 10 | 0.96 | Cn1cc(-c2ccc3c(N4CCN(C(=O)OC(C)(C)C)CCC4=O)cnn3c2)cn1 [Compound 27, tert-butyl 4-[6-(1-methyl-1H-pyrazol-4-yl)pyrazolo[1,5-a]pyridine-3-yl]-5-oxo-1,4-diazepane-1-carboxylate]
> 10 | 0.95 | Cn1nnc(-c2ccc3c(N4CCN(C(=O)OC(C)(C)C)CC4)cnn3c2)n1 [Compound 237, tert-butyl 4-(6-(2-methyl-2H-tetrazol-5-yl)pyrazolo[1,5-a]pyridin-3-yl)piperazine-1-carboxylate]
1.23 | 5.57 | Cn1cc(-c2ccc3c(N4CCN(C(=O)OCc5ncc(Cl)s5)CC4)cnn3c2)cn1 [Compound 195, (5-chlorothiazol-2-yl)methyl 4-(6-(1-methyl-1H-pyrazol-4-yl)pyrazolo[1,5-a]pyridin-3-yl)piperazine-1-carboxylate]
7.62 | 6.20 | Cn1cc(-c2ccc3c(N4CCN(c5ncc(C(O)C(F)(F)F)cn5)CC4)cnn3c2)cn1 (stereo not shown) [Compound 285, 2,2,2-trifluoro-1-(2-{4-[6-(1-methyl-1H-pyrazol-4-yl)pyrazolo[1,5-a]pyridin-3-yl]piperazin-1-yl}pyrimidin-5-yl)ethanol]
0.00596 | 9.58 | Cn1cc(-c2ccc3c(N4CCN(S(=O)(=O)NCc5ccc(C(F)(F)F)cc5)CC4)cnn3c2)cn1 [Compound 294, 4-(6-(1-methyl-1H-pyrazol-4-yl)pyrazolo[1,5-a]pyridin-3-yl)-N-(4-(trifluoromethyl)benzyl)piperazine-1-sulfonamide]
> 10 | 0.33 | Cn1cc(-c2cc3ncc(N4CCCN(c5ncc(Cc6ccccc6)cn5)CC4)n3cn2)cn1 [Compound 114, 3-(4-(5-benzylpyrimidin-2-yl)-1,4-diazepan-1-yl)-7-(1-methyl-1H-pyrazol-4-yl)imidazo[1,2-c]pyrimidine]
2.14 | 4.76 | Cn1cc(-c2ccc3c(NCC(=O)Nc4ncc(Cc5ccccc5)cn4)cnn3c2)cn1 [Compound 244, N-(5-benzylpyrimidin-2-yl)-2-((6-(1-methyl-1H-pyrazol-4-yl)pyrazolo[1,5-a]pyridin-3-yl)amino) acetamide]
1.42 | 11.69 | Cn1cnc(-c2ccc3c(N4CCN(C(=O)OC(C)(C)C)CC4)cnn3c2)c1 [Compound 226, tert-butyl 4-(6-(1-methyl-1H-imidazol-4-yl)pyrazolo[1,5-a]pyridin-3-yl)piperazine-1-carboxylate]
